The nature of assay [1]: Inhibition of Dictyostelium discoideum myosin 2 motor domain-activated ATPase activity by spectrophotometry based PK/LDH coupled ATPase assay.
Assay [2] in a line: Inhibition of Dictyostelium discoideum myosin 1b ATPase activity by spectrophotometric analysis.
In assay [3] the target is Unconventional myosin-Va (Gallus gallus, UniProt Q02440). Put plainly: Inhibition of chicken myosin 5a assessed as ATP hydrolysis.

Each structure is given as a SMILES string.

Unconventional myosin-Va, sequence (Q02440 whole entry): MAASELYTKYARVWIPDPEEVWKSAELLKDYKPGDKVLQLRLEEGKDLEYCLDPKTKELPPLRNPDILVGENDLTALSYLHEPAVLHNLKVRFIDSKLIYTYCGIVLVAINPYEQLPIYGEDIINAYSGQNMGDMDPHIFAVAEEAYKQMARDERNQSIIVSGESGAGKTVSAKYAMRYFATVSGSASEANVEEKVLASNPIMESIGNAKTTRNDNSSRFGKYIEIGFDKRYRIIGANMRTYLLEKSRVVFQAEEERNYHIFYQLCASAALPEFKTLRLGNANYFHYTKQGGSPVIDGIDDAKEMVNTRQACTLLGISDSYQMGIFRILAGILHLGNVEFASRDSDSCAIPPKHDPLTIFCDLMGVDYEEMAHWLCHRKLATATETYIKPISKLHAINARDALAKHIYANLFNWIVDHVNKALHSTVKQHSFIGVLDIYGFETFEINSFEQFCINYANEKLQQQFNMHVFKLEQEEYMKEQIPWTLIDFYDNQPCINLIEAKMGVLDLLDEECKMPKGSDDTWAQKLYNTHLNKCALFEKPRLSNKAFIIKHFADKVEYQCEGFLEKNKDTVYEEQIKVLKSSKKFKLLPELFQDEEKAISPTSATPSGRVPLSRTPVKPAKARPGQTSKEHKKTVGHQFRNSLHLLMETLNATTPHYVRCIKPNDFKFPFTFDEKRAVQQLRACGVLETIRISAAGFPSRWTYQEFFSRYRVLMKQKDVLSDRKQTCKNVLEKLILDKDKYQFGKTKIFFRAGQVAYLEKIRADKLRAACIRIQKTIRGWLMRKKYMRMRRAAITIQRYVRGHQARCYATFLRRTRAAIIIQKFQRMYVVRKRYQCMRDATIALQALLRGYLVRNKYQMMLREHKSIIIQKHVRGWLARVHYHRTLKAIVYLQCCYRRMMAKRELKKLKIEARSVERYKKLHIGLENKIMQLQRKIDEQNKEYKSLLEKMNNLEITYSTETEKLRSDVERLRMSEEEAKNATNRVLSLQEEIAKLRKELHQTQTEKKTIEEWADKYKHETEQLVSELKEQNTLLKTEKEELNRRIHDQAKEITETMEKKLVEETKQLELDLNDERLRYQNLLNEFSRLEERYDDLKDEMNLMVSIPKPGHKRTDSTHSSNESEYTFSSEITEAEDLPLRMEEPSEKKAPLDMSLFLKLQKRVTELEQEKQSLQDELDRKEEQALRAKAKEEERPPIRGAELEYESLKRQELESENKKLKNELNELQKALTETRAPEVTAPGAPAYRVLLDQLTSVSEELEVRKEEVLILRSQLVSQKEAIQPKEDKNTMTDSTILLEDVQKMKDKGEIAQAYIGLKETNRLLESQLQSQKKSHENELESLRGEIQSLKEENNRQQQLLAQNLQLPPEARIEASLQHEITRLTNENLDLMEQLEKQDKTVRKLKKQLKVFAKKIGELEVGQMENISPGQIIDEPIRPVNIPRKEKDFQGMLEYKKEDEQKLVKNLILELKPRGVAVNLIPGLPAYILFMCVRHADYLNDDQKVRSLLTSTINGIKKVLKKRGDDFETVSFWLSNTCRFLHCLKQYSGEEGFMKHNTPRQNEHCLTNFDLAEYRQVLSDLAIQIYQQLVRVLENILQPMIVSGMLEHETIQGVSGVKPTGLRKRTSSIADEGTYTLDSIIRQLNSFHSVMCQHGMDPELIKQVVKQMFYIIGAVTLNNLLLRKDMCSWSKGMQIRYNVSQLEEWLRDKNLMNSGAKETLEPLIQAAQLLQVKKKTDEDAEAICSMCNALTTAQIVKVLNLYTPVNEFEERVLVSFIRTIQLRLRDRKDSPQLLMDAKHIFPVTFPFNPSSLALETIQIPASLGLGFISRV

`COc1c(Cl)cc(Cl)cc1-c1[nH]c(Cl)c(Cl)c1Cl` gave an IC50 in assay [1] of 274 µM.

For the molecule `COc1ccccc1-c1[nH]c(Br)c(Br)c1Br`, the IC50 in assay [1] worked out at 182 µM.

`COc1ccccc1-c1ccc[nH]1` displayed an IC50 in assay [1] of over 1000 µM.

Regarding `Oc1c(Cl)cc(Cl)cc1-c1[nH]c(Cl)c(Cl)c1Cl` [PENTACHLOROPSEUDILIN], the IC50 in assay [2] turned out to be 1 µM; in assay [1] it was 126 µM.

`Oc1ccccc1-c1ccc[nH]1` returned an IC50 in assay [1] of over 1000 µM.

In assay [1], `Cn1c(Br)c(Br)c(Br)c1-c1cc(Br)cc(Br)c1O` returned an IC50 of 125 µM.

`COc1c(Br)cc(Br)cc1-c1[nH]c(Br)c(Br)c1Br` returned an IC50 in assay [1] of 91.9 µM.

With `Oc1c(Br)cc(Br)cc1-c1[nH]c(Br)c(Br)c1Br` [PENTABROMOPSEUDILIN], the concentration for half-maximal inhibition (IC50) is 1.2 µM in assay [3] and 24.4 µM in assay [1].

Values taken from ChEMBL document CHEMBL1781890, “Inhibition of Myosin ATPase activity by halogenated pseudilins: a structure-activity study” (J Med Chem, 2011).
